The values below come from ChEMBL document CHEMBL4706549, “Isoquinolinone derivatives as potent CNS multi-receptor D/5-HT/5-HT/5-HT/5-HT agents: Synthesis and pharmacological evaluation” (Eur J Med Chem, 2020).

Each structure is given as a SMILES string. Active and inactive are the calls of the source. The rule behind the calls is not given here.

In data set [1] the target is T1, 5-hydroxytryptamine receptor 1A (Rattus norvegicus, UniProt P19327).
T1 sequence (P19327 whole entry): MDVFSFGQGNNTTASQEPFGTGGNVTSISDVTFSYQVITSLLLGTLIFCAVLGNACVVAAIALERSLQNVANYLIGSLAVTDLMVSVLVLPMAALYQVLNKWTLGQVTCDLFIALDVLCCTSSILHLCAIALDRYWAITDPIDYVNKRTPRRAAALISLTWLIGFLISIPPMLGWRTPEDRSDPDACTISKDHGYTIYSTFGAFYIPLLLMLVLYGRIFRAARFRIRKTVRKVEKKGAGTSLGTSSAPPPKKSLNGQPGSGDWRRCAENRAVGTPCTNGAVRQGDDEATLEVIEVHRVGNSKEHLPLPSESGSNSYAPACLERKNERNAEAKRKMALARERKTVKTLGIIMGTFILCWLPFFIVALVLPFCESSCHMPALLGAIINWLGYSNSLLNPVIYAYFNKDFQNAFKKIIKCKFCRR
In words: biochemical.
Description: Displacement of [3H](+)8-OH-DPAT from rat cerebral cortex 5HT1A receptor measured after 30 mins by liquid scintillation counting method

Data set [2] concerns the target D(2) dopamine receptor (Rattus norvegicus, UniProt P61169). Briefly: biochemical.
Description: Displacement of [3H]spiperone from D2 receptor in rat striatum measured after 15 mins by liquid scintillation counting method
Data set [3] has as its target 5-hydroxytryptamine receptor 2A (Rattus norvegicus, UniProt P14842). Briefly: biochemical.
Data set [4] can be described thus: Effect on total exploration time in Sprague-Dawley rat at 0.2 mg/kg, po measured after 1 hr by novel object recognition test. Type of data set: ADME, organism-based. Conditions: in vivo.
The test system of data set [5] is Rattus norvegicus. In words: Cognitive enhancement effect in Sprague-Dawley rat assessed as increase in time spent in exploring novel object at 0.2 mg/kg, po administered 1 hr prior to acquisition trial and measured after 24 hrs by novel object recognition test. It is filed as functional, organism-based.
For data set [6], the target named is 5-hydroxytryptamine receptor 2C (Rattus norvegicus, UniProt P08909).
Description: Displacement of [3H]mesulergine from rat cerebral cortex 5HT2C receptor measured after 15 mins by liquid scintillation counting method
The target in data set [7] is Adrenergic receptor alpha-1 (Rattus norvegicus, UniProt P15823+P23944+P43140).
Description: Displacement of [3H]prazosin from rat cerebral cortex alpha1 adrenergic receptor measured after 60 mins by liquid scintillation counting method
The target in data set [8] is 5-hydroxytryptamine receptor 6 (Homo sapiens, UniProt P50406).
Description: Displacement of [3H]lysergic acid diethylamide from human recombinant 5HT6 receptor stably expressed in CHO cell membranes measured after 30 mins by liquid scintillation counting method
The target in data set [9] is 5-hydroxytryptamine receptor 7 (Rattus norvegicus, UniProt P32305). In words: biochemical.
For data set [10], the target named is Histamine H1 receptor (Cavia porcellus, UniProt P31389).
Description: Displacement of [3H]pyrilamine from guinea pig cerebellum histamine H1 receptor measured after 60 mins by liquid scintillation counting method
The nature of data set [11]: Effect on spontaneous locomotor activity in Kunming mouse assessed as total distance traveled at 1 mg/kg, ig measured after 1 hr (reference value: 13579 +/- 8864 millimeter). It is filed as ADME, organism-based. Conditions: in vivo, po.
Data set [12] is described as follows: Effect on spontaneous locomotor activity in Kunming mouse assessed as total distance traveled at 10 mg/kg, ig measured after 1 hr (reference value: 13579 +/- 8864 millimeter). To be noted: in vivo, po. It is filed as ADME, organism-based.
Data set [13] in a line: Effect on spontaneous locomotor activity in Kunming mouse assessed as total distance traveled at 3 mg/kg, ig measured after 1 hr (reference value: 13579 +/- 8864 millimeter). Type of data set: ADME, organism-based. To be noted: in vivo, po.
A short description of data set [14]: Displacement of [3H]ketanserin from human 5HT2A receptor expressed in CHO-K1 cells measured after 20 mins. On the technique in general: Loss of bound radioactivity is the signal in a displacement assay; it reports binding, not function.
For data set [15] the following is noted: mouse, in vivo, po.
Description: Toxicity in po dosed Kunming mouse assessed as catalepsy
Data set [16] is filed under the species Mus musculus. Briefly: animal or person. To be noted: Kunming, po.
The species named for data set [17] is Mus musculus. Briefly: animal or person. Conditions: Kunming, po. The source holds these as a separate data set.
Description: Antipsychotic activity in Kunming mouse assessed as inhibition of MK801-induced locomotor activity administered orally 30 mins prior to MK801 challenge and measured for 90 mins
The species entered for data set [18] is Mus musculus. Briefly: animal or person. To be noted: Kunming, po, 1.333 h.
Data set [19] in a line: Toxicity in Kunming mouse assessed as change in body weight at 0.1 to 0.3 mg/kg, po administered for 28 days measured daily during compound dosing. Type of data set: organism-based. Conditions: in vivo, 672 h, dose 0.1-0.3 mg/kg, time 28 day.
For data set [20], the target named is 5-hydroxytryptamine receptor 1A (Homo sapiens, UniProt P08908). Briefly: Binding affinity to 5HT1A receptor (unknown origin).
The target in data set [21] is Histamine H1 receptor (Homo sapiens, UniProt P35367). Briefly: Binding affinity to H1 receptor (unknown origin).
Data set [22] has as its target 5-hydroxytryptamine receptor 2C (Homo sapiens, UniProt P28335). In words: Binding affinity to 5HT2C receptor (unknown origin).
The target in data set [23] is D(2) dopamine receptor (Homo sapiens, UniProt P14416). Briefly: Binding affinity to D2 receptor (unknown origin).
Data set [24] addresses 5-hydroxytryptamine receptor 2A (Homo sapiens, UniProt P28223). Briefly: Binding affinity to 5HT2A receptor (unknown origin).
For data set [25], the target named is D(3) dopamine receptor (Homo sapiens, UniProt P35462).
Description: Binding affinity to D3 receptor (unknown origin)
The nature of data set [26]: Therapeutic index, ratio of ED50 for toxicity in po dosed Kunming mouse assessed as catalepsy to ED50 for antipsychotic activity in Kunming mouse assessed as inhibition of apomorphine-induced climbing behavior. Conditions: in vivo, read-out: Ratio ED50. It is filed as organism-based.
The nature of data set [27]: Therapeutic index, ratio of ED50 for toxicity in po dosed Kunming mouse assessed as catalepsy to ED50 for antipsychotic activity in Kunming mouse assessed as inhibition of MK801-induced locomotor activity. Type of data set: organism-based. Conditions: in vivo, read-out: Ratio ED50.

Sequence of D(2) dopamine receptor (Rattus norvegicus, UniProt P61169) (P61169 whole entry): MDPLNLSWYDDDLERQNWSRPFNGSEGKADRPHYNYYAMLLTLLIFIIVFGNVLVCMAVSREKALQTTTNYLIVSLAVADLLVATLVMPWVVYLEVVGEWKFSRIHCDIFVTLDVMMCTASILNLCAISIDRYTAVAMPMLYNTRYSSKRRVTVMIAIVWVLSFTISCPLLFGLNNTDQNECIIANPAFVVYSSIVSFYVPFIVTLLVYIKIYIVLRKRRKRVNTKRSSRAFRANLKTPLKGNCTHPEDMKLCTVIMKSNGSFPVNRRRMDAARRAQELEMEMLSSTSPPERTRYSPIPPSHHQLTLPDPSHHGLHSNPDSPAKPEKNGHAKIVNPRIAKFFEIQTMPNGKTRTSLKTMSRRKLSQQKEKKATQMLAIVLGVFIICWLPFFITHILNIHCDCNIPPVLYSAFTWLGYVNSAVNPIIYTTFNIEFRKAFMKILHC
Sequence of 5-hydroxytryptamine receptor 2A (Rattus norvegicus, UniProt P14842) (P14842 whole entry): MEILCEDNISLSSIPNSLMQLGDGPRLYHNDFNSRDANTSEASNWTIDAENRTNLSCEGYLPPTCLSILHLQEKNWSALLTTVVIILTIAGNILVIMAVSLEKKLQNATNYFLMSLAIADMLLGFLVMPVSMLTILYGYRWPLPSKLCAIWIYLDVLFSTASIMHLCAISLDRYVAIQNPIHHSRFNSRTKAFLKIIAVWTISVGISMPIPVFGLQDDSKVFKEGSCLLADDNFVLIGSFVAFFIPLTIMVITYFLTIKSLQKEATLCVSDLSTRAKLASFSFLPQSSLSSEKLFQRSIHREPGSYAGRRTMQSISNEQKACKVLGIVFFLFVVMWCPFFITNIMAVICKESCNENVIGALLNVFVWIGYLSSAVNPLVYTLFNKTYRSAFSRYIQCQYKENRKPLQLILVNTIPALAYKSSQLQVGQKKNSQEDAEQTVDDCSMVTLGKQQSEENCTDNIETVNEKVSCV
Sequence of 5-hydroxytryptamine receptor 2A (Homo sapiens, UniProt P28223) (P28223 whole entry): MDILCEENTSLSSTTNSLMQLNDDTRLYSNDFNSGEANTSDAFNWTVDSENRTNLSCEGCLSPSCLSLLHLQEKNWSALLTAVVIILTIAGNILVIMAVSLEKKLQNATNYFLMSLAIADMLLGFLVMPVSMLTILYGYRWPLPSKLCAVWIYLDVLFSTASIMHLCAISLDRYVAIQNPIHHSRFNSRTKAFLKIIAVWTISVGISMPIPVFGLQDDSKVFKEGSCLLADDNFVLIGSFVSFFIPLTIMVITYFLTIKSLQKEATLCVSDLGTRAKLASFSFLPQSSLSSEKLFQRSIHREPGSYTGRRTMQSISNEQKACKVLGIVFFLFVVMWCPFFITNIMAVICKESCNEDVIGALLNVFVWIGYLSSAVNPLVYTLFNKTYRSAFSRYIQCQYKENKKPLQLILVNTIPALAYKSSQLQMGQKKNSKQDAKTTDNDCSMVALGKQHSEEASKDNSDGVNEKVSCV
Sequence of 5-hydroxytryptamine receptor 6 (P50406 whole entry): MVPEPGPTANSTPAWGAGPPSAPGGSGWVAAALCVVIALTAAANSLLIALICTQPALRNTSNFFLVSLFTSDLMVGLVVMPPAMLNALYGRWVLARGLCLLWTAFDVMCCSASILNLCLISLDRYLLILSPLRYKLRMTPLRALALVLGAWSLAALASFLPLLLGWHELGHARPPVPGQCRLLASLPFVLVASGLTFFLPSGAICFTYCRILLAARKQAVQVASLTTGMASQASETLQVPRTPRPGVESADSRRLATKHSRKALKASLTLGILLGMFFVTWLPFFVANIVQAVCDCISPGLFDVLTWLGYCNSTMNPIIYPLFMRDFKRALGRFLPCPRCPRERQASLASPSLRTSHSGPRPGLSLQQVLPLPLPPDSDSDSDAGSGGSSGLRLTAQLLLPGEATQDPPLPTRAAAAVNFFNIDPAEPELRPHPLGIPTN
Sequence of 5-hydroxytryptamine receptor 2C (Rattus norvegicus, UniProt P08909) (P08909 whole entry): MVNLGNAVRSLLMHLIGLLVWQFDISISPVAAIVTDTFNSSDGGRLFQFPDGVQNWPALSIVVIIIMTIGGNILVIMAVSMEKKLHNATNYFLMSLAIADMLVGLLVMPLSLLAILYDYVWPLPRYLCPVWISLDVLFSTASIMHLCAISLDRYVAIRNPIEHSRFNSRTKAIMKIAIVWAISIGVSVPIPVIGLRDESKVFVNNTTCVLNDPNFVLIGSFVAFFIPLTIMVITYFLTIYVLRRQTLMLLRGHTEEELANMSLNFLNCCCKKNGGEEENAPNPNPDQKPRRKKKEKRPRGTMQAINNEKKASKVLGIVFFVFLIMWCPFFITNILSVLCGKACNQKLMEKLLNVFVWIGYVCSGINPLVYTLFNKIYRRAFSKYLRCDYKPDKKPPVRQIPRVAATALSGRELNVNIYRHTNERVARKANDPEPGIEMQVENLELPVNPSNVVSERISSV
Sequence of 5-hydroxytryptamine receptor 1A (Homo sapiens, UniProt P08908) (P08908 whole entry): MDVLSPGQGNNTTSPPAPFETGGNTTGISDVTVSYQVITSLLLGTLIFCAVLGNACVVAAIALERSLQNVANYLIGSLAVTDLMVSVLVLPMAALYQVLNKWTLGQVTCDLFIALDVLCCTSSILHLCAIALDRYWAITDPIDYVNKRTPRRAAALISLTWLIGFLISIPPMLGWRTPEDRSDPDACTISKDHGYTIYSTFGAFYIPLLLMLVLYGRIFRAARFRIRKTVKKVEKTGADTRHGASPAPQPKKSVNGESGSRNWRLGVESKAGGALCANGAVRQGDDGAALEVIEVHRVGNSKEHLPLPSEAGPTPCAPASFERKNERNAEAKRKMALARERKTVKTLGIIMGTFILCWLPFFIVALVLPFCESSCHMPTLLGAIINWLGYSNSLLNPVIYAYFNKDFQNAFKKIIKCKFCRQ
Sequence of 5-hydroxytryptamine receptor 7 (P32305 whole entry): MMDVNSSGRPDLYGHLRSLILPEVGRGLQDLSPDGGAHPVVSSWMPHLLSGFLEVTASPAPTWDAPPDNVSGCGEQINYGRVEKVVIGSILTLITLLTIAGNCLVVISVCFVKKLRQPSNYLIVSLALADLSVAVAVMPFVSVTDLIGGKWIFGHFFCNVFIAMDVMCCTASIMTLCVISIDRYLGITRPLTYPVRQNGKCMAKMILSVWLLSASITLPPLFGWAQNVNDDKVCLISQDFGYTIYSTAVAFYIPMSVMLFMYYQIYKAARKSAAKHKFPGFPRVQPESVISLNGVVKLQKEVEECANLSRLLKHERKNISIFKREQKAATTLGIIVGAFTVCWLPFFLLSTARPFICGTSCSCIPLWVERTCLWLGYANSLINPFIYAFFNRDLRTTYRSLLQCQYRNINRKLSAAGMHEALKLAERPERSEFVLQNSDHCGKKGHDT
Sequence of D(2) dopamine receptor (Homo sapiens, UniProt P14416) (P14416 whole entry): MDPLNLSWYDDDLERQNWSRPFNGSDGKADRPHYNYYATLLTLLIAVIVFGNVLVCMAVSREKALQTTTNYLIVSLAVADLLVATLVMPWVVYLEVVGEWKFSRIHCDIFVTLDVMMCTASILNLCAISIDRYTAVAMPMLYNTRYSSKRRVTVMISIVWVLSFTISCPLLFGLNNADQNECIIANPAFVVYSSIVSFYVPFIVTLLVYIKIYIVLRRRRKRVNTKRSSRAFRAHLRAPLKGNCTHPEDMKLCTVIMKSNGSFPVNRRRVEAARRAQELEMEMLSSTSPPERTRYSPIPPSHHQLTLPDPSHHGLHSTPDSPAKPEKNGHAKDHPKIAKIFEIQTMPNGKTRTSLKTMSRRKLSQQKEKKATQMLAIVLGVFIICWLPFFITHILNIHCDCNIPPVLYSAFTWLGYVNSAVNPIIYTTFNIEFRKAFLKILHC
Sequence of 5-hydroxytryptamine receptor 2C (Homo sapiens, UniProt P28335) (P28335 whole entry): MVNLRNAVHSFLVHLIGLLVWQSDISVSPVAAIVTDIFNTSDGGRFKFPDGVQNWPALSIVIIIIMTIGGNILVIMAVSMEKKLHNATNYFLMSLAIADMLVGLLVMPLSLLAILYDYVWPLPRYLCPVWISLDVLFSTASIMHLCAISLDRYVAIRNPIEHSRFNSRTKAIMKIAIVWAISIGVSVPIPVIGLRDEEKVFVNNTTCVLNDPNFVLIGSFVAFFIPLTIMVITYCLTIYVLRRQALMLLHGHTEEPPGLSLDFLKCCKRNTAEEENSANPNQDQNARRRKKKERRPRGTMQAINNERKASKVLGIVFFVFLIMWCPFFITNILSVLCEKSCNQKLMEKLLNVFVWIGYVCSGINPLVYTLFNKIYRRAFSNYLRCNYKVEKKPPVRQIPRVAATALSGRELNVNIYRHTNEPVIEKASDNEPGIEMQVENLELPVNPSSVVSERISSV
Sequence of D(3) dopamine receptor (P35462 whole entry): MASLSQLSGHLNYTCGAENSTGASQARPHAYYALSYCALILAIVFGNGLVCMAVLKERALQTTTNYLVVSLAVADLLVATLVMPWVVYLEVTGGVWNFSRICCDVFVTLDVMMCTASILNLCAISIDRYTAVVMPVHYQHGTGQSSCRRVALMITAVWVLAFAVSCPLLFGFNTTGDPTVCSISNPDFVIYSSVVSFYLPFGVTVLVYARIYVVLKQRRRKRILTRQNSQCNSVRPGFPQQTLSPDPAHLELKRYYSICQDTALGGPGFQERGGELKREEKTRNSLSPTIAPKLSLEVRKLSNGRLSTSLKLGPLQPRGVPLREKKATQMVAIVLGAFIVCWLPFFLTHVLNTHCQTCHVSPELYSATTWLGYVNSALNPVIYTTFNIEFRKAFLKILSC
Sequence of Histamine H1 receptor (Cavia porcellus, UniProt P31389) (P31389 whole entry): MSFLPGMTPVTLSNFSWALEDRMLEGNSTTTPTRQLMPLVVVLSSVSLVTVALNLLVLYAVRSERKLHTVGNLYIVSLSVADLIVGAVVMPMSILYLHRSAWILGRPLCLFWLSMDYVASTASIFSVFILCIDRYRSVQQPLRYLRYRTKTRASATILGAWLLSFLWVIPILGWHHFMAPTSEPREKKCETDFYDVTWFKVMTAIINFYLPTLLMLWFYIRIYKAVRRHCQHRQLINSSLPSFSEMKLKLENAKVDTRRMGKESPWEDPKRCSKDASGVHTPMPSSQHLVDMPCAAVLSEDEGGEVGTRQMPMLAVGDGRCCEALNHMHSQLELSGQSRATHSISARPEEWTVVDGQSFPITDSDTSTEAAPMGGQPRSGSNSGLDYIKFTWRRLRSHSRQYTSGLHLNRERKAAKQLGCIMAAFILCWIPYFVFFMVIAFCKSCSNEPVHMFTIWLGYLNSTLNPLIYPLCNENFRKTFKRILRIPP

Turning to `CN1CCc2ccc(OCCCN3CCN(c4ccc(Cl)cc4)CC3)cc2C1=O`, the results for the Ki in data set [1], in data set [2] and in [3] were 356 nM, 268 nM and 589 nM, respectively.

Take `CN1CCc2ccc(OCCCN3CCC(C(=O)c4ccc(F)cc4F)CC3)cc2C1=O`: the Ki (commonly the equilibrium dissociation constant of an inhibitor or competing ligand from its target) was above 10000 nM in data set [1], 902 nM in [2] and above 10000 nM in [3].

Take `CN1COc2ccc(OCCCN3CCC(c4noc5cc(F)ccc45)CC3)cc2C1=O`: the Ki in data set [1] is 187 nM; in data set [2] it was 698 nM; in data set [3], 598 nM.

On to `COc1ccc(N2CCN(CCCOc3ccc4c(c3)C(=O)N(C)CC4)CC2)cc1`, for which the Ki in data set [1], in data set [2] and in [3] was above 10000 nM throughout.

For the compound `CCN(C)C(=O)Oc1cccc([C@H](C)N(C)C)c1` [RIVASTIGMINE], in data set [4], the Activity entry is reported as “Non-Toxic”. For the same compound, the result in data set [5] was Active.

Turning to `Cn1ccc2ccc(OCCCN3CCC(c4noc5cc(F)ccc45)CC3)cc2c1=O`, the Ki in [1] is 12.1 nM; in data set [6] it was 129 nM; in data set [2], 9.2 nM; in data set [7], 718 nM; in [3], 3.5 nM; in data set [8], 167 nM. Also, the values for the Ki in [9] and in data set [10] were 109 nM and 118 nM, respectively.

`O=C1CN=C(c2ccccc2Cl)c2cc([N+](=O)[O-])ccc2N1` [CLONAZEPAM]: the Activity in [11] was 12188 mm; in data set [12] it was 762 mm; in data set [13], 5784 mm.

Turning to `CN1CCc2ccc(OCCCN3CCN(c4ccc(F)cc4)CC3)cc2C1=O`, the Ki in data set [1] stood at 158 nM; in data set [2], 532 nM; in [3] it was 246 nM.

In the case of `CN1CCc2ccc(OCCCCN3CCN(c4cccc(Cl)c4Cl)CC3)cc2C1=O`, the Ki worked out at 119 nM in data set [1], 316 nM in [2] and 216 nM in [3].

For `COc1ccccc1N1CCN(CCCOc2ccc3c(c2)C(=O)N(C)CC3)CC1`, the Ki is 1110 nM in data set [1], 896 nM in [2] and 992 nM in data set [3].

For `CN1CCc2ccc(OCCCN3CCN(Cc4ccc5c(c4)OCO5)CC3)cc2C1=O`, the Ki in data set [1] was 18.3 nM; in data set [2], above 10000 nM; in data set [3], 25.9 nM.

Consider `CN1CCc2ccc(OCCN3CCC(c4noc5cc(F)ccc45)CC3)cc2C1=O`, for which the Ki was above 10000 nM in data set [1], 568 nM in data set [2] and above 10000 nM in data set [3].

Take `CN1CCc2ccc(OCCCCN3CCN(c4cccc5sccc45)CC3)cc2C1=O`: the Ki in data set [1] turned out to be 431 nM; in [2], 162 nM.

As for `CN1CCc2ccc(OCCCN3CCN(c4cccc(C(F)(F)F)c4)CC3)cc2C1=O`, the Ki came out at 1040 nM in [1], 123 nM in data set [2] and 102 nM in data set [3].

In [14], `O=c1ccc2ccc(OCCCCN3CCN(c4cccc5sccc45)CC3)cc2[nH]1` [BREXPIPRAZOLE] gave a Ki of 0.47 nM.

For `CN1CCc2cc(OCCCN3CCC(c4noc5cc(F)ccc45)CC3)ccc2C1=O`, the Ki in data set [1] was above 10000 nM; in data set [2], above 10000 nM; in [3], 692 nM.

Consider `CN1CCc2ccc(OCCCN3CCN(c4ncccn4)CC3)cc2C1=O`, for which the Ki in data set [1] amounted to 59.3 nM; in [2], 1370 nM; in [3] it was 65.3 nM.

Regarding `Cc1nc2n(c(=O)c1CCN1CCC(c3noc4cc(F)ccc34)CC1)CCCC2` [RISPERIDONE], the ED50 (usually the midpoint of the dose-response relation) turned out to be 1.62 mg/kg in data set [15], 0.02 mg/kg in [16], 0.04 mg/kg in data set [17] and 0.04 mg/kg in [18]. The Activity entry in [4] is reported as “Non-Toxic”; in data set [19], “Toxic”.

As to `O=C(CCCCN1CCC(c2noc3cc(F)ccc23)CC1)c1cc2c3c(c1)CCN3C(=O)CC2`, the inhibition constant (Ki) worked out at 8.6 nM in [20]; 630 nM in data set [21]; 616 nM in [22]; 2.9 nM in data set [23]; 0.72 nM in [24]; 1.66 nM in data set [25].

Turning to `CN1CCc2ccc(OCCCN3CCN(c4ccccn4)CC3)cc2C1=O`, the Ki was above 10000 nM in [1], above 10000 nM in data set [2] and 1160 nM in data set [3].

Regarding `COc1ccccc1N1CCN(CCCCOc2ccc3c(c2)C(=O)N(C)CC3)CC1`, the Ki in data set [1], in data set [2] and in [3] was above 10000 nM throughout.

Turning to `O=C(CCCN1CCC(O)(c2ccc(Cl)cc2)CC1)c1ccc(F)cc1` [HALOPERIDOL], the figures for the ED50 in [15], in [16] and in data set [17] were 0.32 mg/kg, 0.09 mg/kg and 0.11 mg/kg, respectively. In addition, the results for the selectivity ratio in [26] and in [27] were 3.5 and 2.9, respectively.

In the case of `CN1CCc2ccc(OCCCN3CCN(c4ccccc4)CC3)cc2C1=O`, the Ki in data set [1], in [2] and in [3] was above 10000 nM throughout.

As for `CN1CCc2ccc(OCCCN3CCN(c4ccccc4Cl)CC3)cc2C1=O`, the inhibition constant (Ki) in data set [1] is 89.2 nM; in data set [2], 391 nM; in data set [3], 179 nM.

With `CN1CCc2ccc(OCCCN3CCN(c4ccc5ccccc5n4)CC3)cc2C1=O`, the figures for the inhibition constant (Ki) in data set [1], in data set [2] and in data set [3] were 10.2 nM, above 10000 nM and above 10000 nM, respectively.

`CCN1CCc2ccc(OCCCN3CCC(c4noc5cc(F)ccc45)CC3)cc2C1=O`: the Ki is 198 nM in data set [1], 249 nM in data set [2] and 92.1 nM in data set [3].

`CN1CCc2ccc(OCCCCN3CCN(c4cccc(C(F)(F)F)c4)CC3)cc2C1=O`: the results for the Ki in data set [1], in [2] and in [3] were 1040 nM, 261 nM and 132 nM, respectively.

As to `CC1CCc2ccc(OCCCCN3CCC(c4nsc5ccccc45)CC3)cc2C1=O` (centres undefined), the values for the Ki in [1], in data set [2] and in [3] were 1300 nM, above 10000 nM and 890 nM, respectively.

Turning to `CN1CCc2ccc(OCCCN3CCN(c4ccccc4F)CC3)cc2C1=O`, the Ki in data set [1] came out at 262 nM; in [2], 117 nM; in [3] it was 306 nM.

In the case of `CN1CCc2ccc(OCC(O)CN3CCC(c4noc5cc(F)ccc45)CC3)cc2C1=O` (centres undefined), the values for the Ki in data set [1], in data set [2] and in [3] were 856 nM, 1240 nM and 768 nM, respectively.

On to `CN1CCc2ccc(OCCCCN3CCC(c4noc5cc(F)ccc45)CC3)cc2C1=O`, for which the figures for the Ki in data set [1], in [2] and in data set [3] were 30.6 nM, 41.6 nM and 28.3 nM, respectively.

Turning to `CN1CCc2ccc(OCCCN3CCN(c4cccc(Cl)c4Cl)CC3)cc2C1=O`, the Ki in data set [1] amounted to 20.1 nM; in [2], 68.2 nM; in data set [3], 16.8 nM.

As to `CN1CCc2ccc(OCC(F)CN3CCC(c4noc5cc(F)ccc45)CC3)cc2C1=O` (centres undefined), the values for the Ki in data set [1], in [2] and in data set [3] were 68.2 nM, 359 nM and 23.7 nM, respectively.

The compound `CN1CCc2ccc(OCCCN3CCN(c4cccc5sccc45)CC3)cc2C1=O` had a Ki in [1] of 65.2 nM.
